According to US8314150B2, “Kinase protein binding inhibitors” (priority 2008, dated 2012):

What was measured:
[1] = test system: BT474 cells; experiment: Cell adhesion assay on collagen-coated plates, BT474; type: cell-based
Procedure: (§1) Cell Viability Assay—The Cells were treated with peptides for 24 hours at different peptide concentrations. The 3-(4,5-dimethylthiazol-2-yl)-5-(3-carboxymethoxyphenyl)-2-(4-sulfophenyl)-2H-tetrazolium compound from Promega Viability kit (Madison, Ill.) was added, and the cells were incubated at 37° C. for 1-2 hours. The optical density on 96-plate was analyzed with a microplate reader at 490 nm to determine cell viability. In addition, cells were stained with trypan blue after 24 hours of treatment with Y15 and the percent of cells that stained positive were determined with a hemacytometer. […] Then 2% SDS was added to the dried plated and OD at 590 nm was measured for detecting cell adhesion. […] Protein concentrations were determined using a Bio-Rad Kit. The boiled samples were loaded on Ready SDS-10% PAGE gels (Bio Rad, Inc) and used for Western blot analysis with the protein-specific antibody. […] Detachment Assay—Cells were plated with and without inhibitors for 24 hours, and detached and attached cells were counted in a hemocytometer. We calculated the percent of detachment by dividing the number of detached cells by the total number of cells. The percent of detached cells was calculated in three independent experiments. […] For each experiment 300 cells per treatment were counted. […]

[2] = test system: Miapaca-2 cells; experiment: Detachment assay, Miapaca-2; type: cell-based, human
Procedure: as §1

[3] = test system: resistant breast cancer cells with overexpressed Src and activated FAK; experiment: Cell viability in resistant breast cancer cells; type: cell-based; settings: not shown
Procedure: as §1

[4] = biological target: T1, Met (Homo sapiens, UniProt P08581); experiment: KinaseProfiler screening; type: biochemical; settings: 1 μM, 10 μM ATP
T1 construct: purchased Millipore KinaseProfiler Service (Upstate Biotechnology, Inc)
Procedure: (§2) Cell Viability Assay—The Cells were treated with peptides for 24 hours at different peptide concentrations. The 3-(4,5-dimethylthiazol-2-yl)-5-(3-carboxymethoxyphenyl)-2-(4-sulfophenyl)-2H-tetrazolium compound from Promega Viability kit (Madison, Ill.) was added, and the cells were incubated at 37° C. for 1-2 hours. The optical density on 96-plate was analyzed with a microplate reader at 490 nm to determine cell viability. In addition, cells were stained with trypan blue after 24 hours of treatment with Y15 and the percent of cells that stained positive were determined with a hemacytometer. Cell adhesion assay—The poly-L-Lysine or Collagen (5 μg/ml) coated 96-well plates were blocked with the blocking buffer (medium with 0.5% BSA) for 1 hour at 37 C. The cells were pre-treated with drugs for 3 hours and plated for adhesion at 4×10^5 cells. Cells were incubated at 37 C for 1 hour, fixed in 3.7% formaldehyde, washed in 0.1% BSA in PBS and stained with crystal violet (5 mg/ml in 2% ethanol) for 10 minutes. Then 2% SDS was added to the dried plated and OD at 590 nm was measured for detecting cell adhesion. Western Blotting—Cells or homogenized tumor samples were washed twice with cold 1×PBS and lysed on ice for 30 minutes in a buffer containing: 50 mM Tris-HCl (pH 7.5), 150 mM NaCl, 1% Triton-X, 0.5% NaDOC, 0.1% SDS, 5 mM EDTA, 50 mM NaF, 1 mM NaVO3, 10% glycerol and protease inhibitors: 10 μg/ml leupeptin, 10 μg/ml PMSF and 1 μg/ml aprotinin. The lysates were cleared by centrifugation at 10,000 rpm for 30 minutes at 4° C. Protein concentrations were determined using a Bio-Rad Kit. The boiled samples were loaded on Ready SDS-10% PAGE gels (Bio Rad, Inc) and used for Western blot analysis with the protein-specific antibody. Immunoblots were developed with chemiluminescence Renaissance reagent (NEN Life Science Products, Inc). Immunoprecipitation. Immunoprecipitation was performed according to the standard protocol. In brief, the pre-cleared lysates with equal amount of protein were incubated with 1 μg of primary antibody and 30 μl A/G agarose beads overnight at 4° C. The precipitates were washed with lysis buffer three times and re-suspended in 2× Laemmli buffer. The boiled samples were used for Western blotting, as described above. Detachment Assay—Cells were plated with and without inhibitors for 24 hours, and detached and attached cells were counted in a hemocytometer. We calculated the percent of detachment by dividing the number of detached cells by the total number of cells. The percent of detached cells was calculated in three independent experiments. Apoptosis Assay. Detached cells were collected and fixed in 3.7% formaldehyde in 1×PBS solution for the apoptosis assay. Detection of apoptosis was done with Hoechst 33342 staining. The percent of apoptotic cells was calculated as a ratio of apoptotic detached cells divided by the total number of cells in three independent experiments in several fields with the fluorescent microscope. For each experiment 300 cells per treatment were counted. In vitro Kinase Assay—10 μCi of [γ-^32P]-ATP in a kinase buffer (20 mM HEPES, pH 7.4, 5 mM MgCl2, 5 mM MnCl2, 0.1 mM Na3VO4 with 0.1 μg of purified FAK protein were incubated in a kinase buffer with 10 μCi of [γ-^32P]-ATP. The kinase reaction was performed for 5 minutes at room temperature and stopped by addition of 2× Laemmli buffer. Proteins were separated on a Ready SDS-10% PAGE gel, and the phosphorylated enolase was visualized by autoradiography. KinaseProfiler screening—Kinase specificity screening was performed with KinaseProfiler™ Service (Millipore) available on http://www.millipore.com/drugdiscovery/dd3/KinaseProfiler. The screening was performed with 1 μM Y15, 10 μM ATP and kinase substrates on 9 recombinant kinases according to Millipore protocol. Tumor Growth in Nude Mice—Female nude mice, 6 weeks old, were purchased from Harlan Laboratory. […]

[5] = biological target: T2, PI3K (p110δ/p85α) (Homo sapiens, UniProt O00329); experiment: KinaseProfiler screening; type: biochemical; settings: 1 μM, 10 μM ATP
T2 construct: purchased Millipore KinaseProfiler Service (Upstate Biotechnology, Inc)
Procedure: as §2

[6] = biological target: T3, VEGFR-3 (Homo sapiens, UniProt P35916); experiment: KinaseProfiler screening; type: biochemical; settings: 1 μM, 10 μM ATP
T3 construct: purchased Millipore KinaseProfiler Service (Upstate Biotechnology, Inc)
T3 sequence (P35916 25-1363): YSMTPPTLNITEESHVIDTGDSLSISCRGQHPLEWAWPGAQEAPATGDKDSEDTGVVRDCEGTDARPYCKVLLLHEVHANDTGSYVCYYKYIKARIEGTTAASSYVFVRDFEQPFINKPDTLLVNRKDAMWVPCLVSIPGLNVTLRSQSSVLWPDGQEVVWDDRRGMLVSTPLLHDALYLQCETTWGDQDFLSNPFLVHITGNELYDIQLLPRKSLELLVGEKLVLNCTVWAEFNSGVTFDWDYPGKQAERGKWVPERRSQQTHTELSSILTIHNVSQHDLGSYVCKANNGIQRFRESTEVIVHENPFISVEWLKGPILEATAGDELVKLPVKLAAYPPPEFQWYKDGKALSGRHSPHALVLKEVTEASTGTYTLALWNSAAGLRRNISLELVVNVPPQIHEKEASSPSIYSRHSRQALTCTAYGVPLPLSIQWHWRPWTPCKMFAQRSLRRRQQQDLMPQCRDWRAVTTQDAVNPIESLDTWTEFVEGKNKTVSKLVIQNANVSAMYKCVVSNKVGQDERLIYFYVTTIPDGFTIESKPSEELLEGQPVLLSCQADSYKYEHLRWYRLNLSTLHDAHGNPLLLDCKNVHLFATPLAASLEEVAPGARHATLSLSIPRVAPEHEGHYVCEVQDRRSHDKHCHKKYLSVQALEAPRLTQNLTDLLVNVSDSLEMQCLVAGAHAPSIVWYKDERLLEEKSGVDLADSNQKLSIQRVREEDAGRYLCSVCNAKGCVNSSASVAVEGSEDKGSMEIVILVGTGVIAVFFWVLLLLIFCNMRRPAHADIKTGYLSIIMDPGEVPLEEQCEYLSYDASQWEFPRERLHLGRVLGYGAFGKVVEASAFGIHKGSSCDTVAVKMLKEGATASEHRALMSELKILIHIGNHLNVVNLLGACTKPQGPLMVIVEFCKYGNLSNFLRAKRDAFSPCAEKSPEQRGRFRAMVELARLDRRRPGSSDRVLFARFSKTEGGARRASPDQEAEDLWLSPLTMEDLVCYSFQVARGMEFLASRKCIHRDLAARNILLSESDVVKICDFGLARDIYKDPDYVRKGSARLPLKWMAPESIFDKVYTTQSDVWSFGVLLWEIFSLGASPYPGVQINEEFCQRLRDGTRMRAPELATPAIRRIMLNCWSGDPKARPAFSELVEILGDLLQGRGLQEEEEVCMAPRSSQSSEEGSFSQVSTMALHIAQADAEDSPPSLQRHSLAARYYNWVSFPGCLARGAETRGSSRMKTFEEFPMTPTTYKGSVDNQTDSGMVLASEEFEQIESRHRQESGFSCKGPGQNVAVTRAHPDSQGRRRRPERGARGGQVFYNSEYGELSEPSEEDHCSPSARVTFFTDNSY
Procedure: as §2

[7] = biological target: T4, PDGFR-α (Homo sapiens, UniProt P16234); experiment: KinaseProfiler screening; type: biochemical; settings: 1 μM, 10 μM ATP
T4 construct: purchased Millipore KinaseProfiler Service (Upstate Biotechnology, Inc)
Procedure: as §2

[8] = biological target: T5, c-Src (Homo sapiens, UniProt P12931); experiment: KinaseProfiler screening; type: biochemical; settings: 1 μM, 10 μM ATP
T5 construct: purchased Millipore KinaseProfiler Service (Upstate Biotechnology, Inc)
T5 sequence (P12931 whole entry): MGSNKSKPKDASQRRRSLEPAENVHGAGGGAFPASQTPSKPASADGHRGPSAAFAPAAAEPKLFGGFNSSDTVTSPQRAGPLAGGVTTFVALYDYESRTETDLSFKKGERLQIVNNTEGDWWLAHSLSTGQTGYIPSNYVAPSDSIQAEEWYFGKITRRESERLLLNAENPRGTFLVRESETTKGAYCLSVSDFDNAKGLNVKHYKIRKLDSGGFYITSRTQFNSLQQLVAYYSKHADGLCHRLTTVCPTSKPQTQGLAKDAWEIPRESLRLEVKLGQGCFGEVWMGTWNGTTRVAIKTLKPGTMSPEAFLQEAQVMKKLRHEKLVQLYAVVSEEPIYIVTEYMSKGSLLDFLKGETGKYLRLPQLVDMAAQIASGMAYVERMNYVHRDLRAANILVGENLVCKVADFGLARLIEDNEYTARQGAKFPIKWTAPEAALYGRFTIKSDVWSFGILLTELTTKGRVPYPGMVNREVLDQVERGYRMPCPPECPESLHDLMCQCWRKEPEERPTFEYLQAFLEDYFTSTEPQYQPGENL
Procedure: as §2

[9] = biological target: T6, EGFR (Homo sapiens, UniProt P00533); experiment: KinaseProfiler screening; type: biochemical; settings: 1 μM, 10 μM ATP
T6 construct: purchased Millipore KinaseProfiler Service (Upstate Biotechnology, Inc)
T6 sequence (P00533 25-1210): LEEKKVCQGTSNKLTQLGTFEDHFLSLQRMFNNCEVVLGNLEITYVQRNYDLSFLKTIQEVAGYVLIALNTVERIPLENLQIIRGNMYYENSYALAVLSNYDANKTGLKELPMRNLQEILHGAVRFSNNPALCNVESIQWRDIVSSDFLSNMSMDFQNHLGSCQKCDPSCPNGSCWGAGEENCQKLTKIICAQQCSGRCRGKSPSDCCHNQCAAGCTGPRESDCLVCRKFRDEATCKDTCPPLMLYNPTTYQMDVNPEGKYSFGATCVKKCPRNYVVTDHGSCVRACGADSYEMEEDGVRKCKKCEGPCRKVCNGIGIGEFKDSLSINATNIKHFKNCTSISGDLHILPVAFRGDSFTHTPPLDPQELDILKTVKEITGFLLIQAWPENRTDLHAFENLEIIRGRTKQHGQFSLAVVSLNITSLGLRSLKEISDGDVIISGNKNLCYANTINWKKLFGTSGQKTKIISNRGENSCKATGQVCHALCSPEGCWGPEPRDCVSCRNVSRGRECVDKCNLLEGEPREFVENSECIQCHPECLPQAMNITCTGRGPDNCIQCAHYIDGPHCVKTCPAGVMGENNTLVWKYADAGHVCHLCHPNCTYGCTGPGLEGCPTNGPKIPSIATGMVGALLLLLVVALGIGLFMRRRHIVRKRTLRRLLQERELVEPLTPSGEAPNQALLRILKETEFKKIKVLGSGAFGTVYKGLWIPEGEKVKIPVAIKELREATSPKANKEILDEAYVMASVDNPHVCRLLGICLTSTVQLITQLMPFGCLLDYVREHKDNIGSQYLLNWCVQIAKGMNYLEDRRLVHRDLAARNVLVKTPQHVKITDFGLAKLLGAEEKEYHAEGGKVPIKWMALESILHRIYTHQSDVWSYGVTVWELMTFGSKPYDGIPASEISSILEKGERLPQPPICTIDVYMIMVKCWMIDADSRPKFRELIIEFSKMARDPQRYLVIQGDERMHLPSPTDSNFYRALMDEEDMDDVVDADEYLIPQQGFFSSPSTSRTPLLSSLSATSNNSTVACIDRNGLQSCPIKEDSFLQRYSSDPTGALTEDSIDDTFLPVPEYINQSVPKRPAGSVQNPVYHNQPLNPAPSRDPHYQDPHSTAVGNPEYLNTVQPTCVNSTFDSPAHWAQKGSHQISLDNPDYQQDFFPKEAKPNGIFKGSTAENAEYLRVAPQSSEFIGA
Procedure: as §2

[10] = biological target: T7, IGF-1 (Homo sapiens, UniProt P08069); experiment: KinaseProfiler screening; type: biochemical; settings: 1 μM, 10 μM ATP
T7 construct: purchased Millipore KinaseProfiler Service (Upstate Biotechnology, Inc)
T7 sequence (P08069 31-1367): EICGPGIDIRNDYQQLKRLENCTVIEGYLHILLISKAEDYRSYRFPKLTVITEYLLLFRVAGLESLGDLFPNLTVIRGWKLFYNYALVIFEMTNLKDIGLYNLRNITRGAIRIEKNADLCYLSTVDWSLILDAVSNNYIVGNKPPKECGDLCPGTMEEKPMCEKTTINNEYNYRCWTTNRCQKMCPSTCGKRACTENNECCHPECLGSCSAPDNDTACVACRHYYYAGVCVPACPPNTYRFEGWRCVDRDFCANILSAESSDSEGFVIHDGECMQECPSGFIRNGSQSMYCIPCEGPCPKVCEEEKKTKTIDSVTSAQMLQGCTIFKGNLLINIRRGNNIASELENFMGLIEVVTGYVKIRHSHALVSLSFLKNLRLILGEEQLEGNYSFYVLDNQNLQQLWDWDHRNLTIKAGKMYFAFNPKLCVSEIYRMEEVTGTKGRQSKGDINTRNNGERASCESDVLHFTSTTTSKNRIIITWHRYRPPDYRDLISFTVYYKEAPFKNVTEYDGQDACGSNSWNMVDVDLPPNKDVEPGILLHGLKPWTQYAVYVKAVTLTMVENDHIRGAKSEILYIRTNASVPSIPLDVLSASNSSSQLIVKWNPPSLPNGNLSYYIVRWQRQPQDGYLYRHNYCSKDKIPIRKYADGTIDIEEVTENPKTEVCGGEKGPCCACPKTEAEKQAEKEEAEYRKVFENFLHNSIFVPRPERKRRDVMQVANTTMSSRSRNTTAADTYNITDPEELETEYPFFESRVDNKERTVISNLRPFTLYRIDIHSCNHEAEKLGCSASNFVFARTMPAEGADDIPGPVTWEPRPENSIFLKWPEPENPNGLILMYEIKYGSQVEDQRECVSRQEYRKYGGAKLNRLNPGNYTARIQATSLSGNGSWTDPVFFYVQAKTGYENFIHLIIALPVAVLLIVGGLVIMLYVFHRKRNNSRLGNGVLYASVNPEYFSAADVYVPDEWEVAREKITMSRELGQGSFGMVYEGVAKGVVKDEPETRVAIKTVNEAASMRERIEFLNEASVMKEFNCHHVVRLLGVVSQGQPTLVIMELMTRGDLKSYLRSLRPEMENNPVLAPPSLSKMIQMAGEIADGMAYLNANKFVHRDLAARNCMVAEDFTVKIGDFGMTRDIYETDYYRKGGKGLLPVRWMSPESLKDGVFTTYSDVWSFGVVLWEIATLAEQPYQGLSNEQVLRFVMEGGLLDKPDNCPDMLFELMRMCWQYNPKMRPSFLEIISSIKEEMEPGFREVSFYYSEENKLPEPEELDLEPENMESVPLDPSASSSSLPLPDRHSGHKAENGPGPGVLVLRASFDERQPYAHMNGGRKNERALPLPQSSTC
Procedure: as §2

[11] = biological target: T8, c-RAF (Homo sapiens, UniProt P04049); experiment: KinaseProfiler screening; type: biochemical; settings: 1 μM, 10 μM ATP
T8 construct: purchased Millipore KinaseProfiler Service (Upstate Biotechnology, Inc)
T8 sequence (P04049 whole entry): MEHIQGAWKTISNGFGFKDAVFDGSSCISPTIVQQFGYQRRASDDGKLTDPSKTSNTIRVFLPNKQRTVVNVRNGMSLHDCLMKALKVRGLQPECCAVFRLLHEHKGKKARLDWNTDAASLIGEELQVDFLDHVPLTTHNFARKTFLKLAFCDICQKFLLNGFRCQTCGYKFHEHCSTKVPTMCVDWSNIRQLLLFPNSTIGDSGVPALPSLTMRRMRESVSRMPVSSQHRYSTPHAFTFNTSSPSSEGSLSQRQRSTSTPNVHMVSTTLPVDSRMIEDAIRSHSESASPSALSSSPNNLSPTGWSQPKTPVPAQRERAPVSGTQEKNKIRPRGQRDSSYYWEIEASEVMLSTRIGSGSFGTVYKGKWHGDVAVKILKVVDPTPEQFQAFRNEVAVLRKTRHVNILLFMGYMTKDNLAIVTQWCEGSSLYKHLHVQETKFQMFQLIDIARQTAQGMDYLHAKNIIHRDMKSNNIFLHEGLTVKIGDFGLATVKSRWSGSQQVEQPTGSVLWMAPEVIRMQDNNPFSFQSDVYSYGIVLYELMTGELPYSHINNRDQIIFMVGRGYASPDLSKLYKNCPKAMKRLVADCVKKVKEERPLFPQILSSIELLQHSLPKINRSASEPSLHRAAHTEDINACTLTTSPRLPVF
Procedure: as §2

[12] = biological target: T9, Pyk2 (Homo sapiens, UniProt Q14289); experiment: KinaseProfiler screening; type: biochemical; settings: 1 μM, 10 μM ATP
T9 construct: purchased Millipore KinaseProfiler Service (Upstate Biotechnology, Inc)
Procedure: as §2

[13] = test system: normal human fibroblasts; experiment: Detachment and morphology, normal human fibroblasts; type: cell-based; settings: doses up to 10 μM
Procedure: as §1

Cl.Cl.Cl.Cl.Nc1cc(N)c(N)cc1N [Y15, 1,2,4,5-benzenetetraamine tetrahydrochloride]
cell adhesion ([1]; 100 μM): significantly inhibited cell adhesion as TAE-226 | dose from which cell adhesion was significantly decreased ([1]; collagen-coated plates): 50 µM | dose from which detachment was significant [2]: 3 µM | cell viability [3]: effectively blocked cell viability | kinase activity [4]: did not significantly decrease kinase activity | kinase activity [5]: did not significantly decrease kinase activity | kinase activity [6]: did not significantly decrease kinase activity | kinase activity [7]: did not significantly decrease kinase activity | kinase activity [8]: did not significantly decrease kinase activity | kinase activity [9]: did not significantly decrease kinase activity | kinase activity [10]: did not significantly decrease kinase activity | kinase activity [11]: did not significantly decrease kinase activity | kinase activity [12]: did not significantly decrease kinase activity | morphology and cell detachment [13]: did not cause a significant change in morphology or increase in cell detachment
